Assay results taken from PubChem BioAssay AID179 (DTP/NCI, 2004).
Active and inactive are the calls of the source.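 How the source made its calls: active means compounds giving half or more protection of infected cells from virus-caused growth loss, again on retest; inactive means the rest.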 Where a SMILES comes first, the peptide text is derived from it. [ ]: non-standard residue; d: D form. The star is where a group is joined. ξ: configuration not given here. Bz = O=C(c1ccccc1)*; Bn = c1ccc(C*)cc1; ξC = NC(CS)C(=O)O

System: CEM cells HIV-1 protection, formazan growth assay
Assay: NCI AIDS Antiviral Assay
Settings: for IC50: measured here: growth of uninfected CEM cells
Method in brief: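 Human CEM cells, uninfected and HIV-1-infected, received five drug concentrations, and growth was read by soluble formazan assay. Compounds giving at least 50% protection were retested; reproducible 100% protection defined confirmed active.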

Compound | EC50 [µM] | IC50 [µM] | outcome
O=c1c2ccccc2ncn1COCc1ccccc1 | > 200 | > 200 | 
CC(C(=O)ON1C(=O)CCC1=O)c1ccc(C(=O)c2ccccc2)s1 (configuration not stated) | > 200 | > 200 | 
O=C1O[C@H]2[C@@H](I)[C@H]3C[C@H]2[C@H]1[C@H]3c1ccccc1 | > 200 | > 200 | 
Cc1ccncc1.Cc1ccncc1.O=[N+]([O-])[O-].O=[N+]([O-])[O-].[Pt+2] | > 148 | 69.2 | 
C1COC(NC(C2CC2)C2CC2)=N1 |  |  | inactive
COc1ccc2nc(NC(=O)C(=O)C(C#N)c3ccc(Cl)c(Cl)c3)sc2c1 (configuration not stated) |  |  | inactive
CC(=O)N/C(=C\C=C\CC=O)SC12CC3CC(CC(C3)C1)C2 | > 200 | 12.6 | 
CC(C)Cn1c(N)c(N=O)c(=O)n(C)c1=O | > 200 | > 200 | 
O=P(Oc1ccccc1)(Oc1ccccc1)N1CCOCC1 | > 200 | 170 | 
Cc1nc2ccccc2n1C(=O)c1c(F)c(F)c(F)c(F)c1F | > 200 | 33.9 | 
Cc1cccc(Nc2nc(N)nc(N)c2N=O)c1 | > 200 | 20.9 | 
Cc1cccc2c1C(=O)[C@](C)([C@]1(C)Nc3cccc(C)c3C1=O)N2 | > 200 | 17.4 | 
NC(=O)CC1C(CO)OC(n2ccc(=O)[nH]c2=O)C1O (configuration not stated) | > 200 | > 200 | 
S=c1cc(-c2ccc3c(c2)OCO3)s[nH]1 | > 200 | 162 | 
NS(=O)(=O)c1ccc(NC(=S)/N=C\C(C(=O)c2ccccc2)=C(\O)c2ccccc2)cc1 | > 200 | 105 | 
O=C(O)c1c(O)ccc(N=Nc2ccc(CCc3ccc(N=Nc4ccc(O)c(C(=O)O)c4O)cc3S(=O)(=O)O)c(S(=O)(=O)O)c2)c1O | > 162 | 97.7 | 
Nc1ccc(N=Nc2ccc(N=Nc3ccc(N=Nc4cc(S(=O)(=O)O)c5ccccc5c4O)c4ccc(S(=O)(=O)O)cc34)c3ccc(S(=O)(=O)O)cc23)cc1 |  |  | active
Clc1ccc(-n2cnn3c(-c4ccccc4)ncc23)cc1 | > 100 | > 100 | 
COc1ccc(-c2cc(-c3ccc(C)cc3)n(C3OC(COC(C)=O)C(OC(C)=O)C(OC(C)=O)C3OC(C)=O)c(=S)c2C#N)cc1 (configuration not stated) | > 200 | > 200 | 
CC(C)(C)C(=O)/C=C/c1ccc(Cl)cc1 | > 32.4 | > 32.4 | 
COc1cc(C(=O)Nc2c3ccccc3nc3ccccc23)cc(OC)c1OC | > 200 | > 200 | 
CC1OC(OC2C(Oc3cc(O)c4c(=O)cc(-c5ccc(O)cc5)oc4c3)OC(CO)C(O)C2O)C(O)C(O)C1O (configuration not stated) | > 427 | > 427 | 

Compound | EC50 [µM] | IC50 [µM] | outcome
CCO/N=[N+](\[O-])N(CC)CC | > 9770 | 8710 | 
CC(=O)N1N=C(c2c(O)ccc3ccccc23)CC1C(=O)c1ccco1 (configuration not stated) | > 200 | 35.5 | 
Clc1ccc(Nc2nnc(CNc3ccc(-c4nnc(Nc5ccc(Cl)cc5)o4)cc3)o2)cc1 | > 200 | 1.23 | 
NC(=O)c1ncn(C2OC(CO)C(O)C2O)c1NC(=S)NC(=O)c1ccccc1 (configuration not stated) | > 589 | > 589 | 
Cn1c(CC(O)(C(F)(F)F)C(F)(F)F)c(C(O)(C(F)(F)F)C(F)(F)F)c2ccccc21 | > 200 | 3.39 | 
CS(=O)(=O)c1nc(N)nc2nc[nH]c12 | > 200 | > 200 | 
CSC1(SC)CCCCCCCCCCC1 | > 200 | 158 | 
COc1ccc(/C=C/C(=O)c2sc(NC(=S)NC(=O)c3ccccc3F)nc2C)cc1OC | > 74.1 | > 74.1 | 
CC(=O)OC1SC(c2c(F)cccc2F)n2c1nc1ccccc12 (configuration not stated) | 38 | 126 | 
COC(=O)C(CSCc1ccccc1)NC(=O)CNC(=O)c1ccccc1 (configuration not stated) (Bz-Gly-[ξC](Bn)-OMe) | > 245 | 219 | 
COC(=O)C(=O)C(C(=O)C(=O)Nc1ccc(Cl)cc1Cl)c1nc2ccc(Cl)cc2[nH]c1=O (configuration not stated) | > 38 | > 38 | 
COc1cccc(N=NN2CCCC2)c1 | > 200 | 91.2 | 
COc1ccc(CCn2c(=O)c3ccccc3n(C)c2=O)cc1 | > 83.2 | 32.4 | 
Cc1c(/C=N/NC(=S)Nc2ccc(Cl)cc2)c(=O)n(-c2ccccc2)n1C | > 200 | > 200 | 
CCOP(=S)(OCC)SC(C)(C)C | > 107 | > 107 | 
O=C(Cc1ccccc1)N/N=C(/c1nc2ccc([N+](=O)[O-])cc2[nH]c1=O)C(O)c1ccccc1Cl (configuration not stated) | > 72.4 | > 72.4 | 
Cc1ccc2c(c1)c1ccc3c(c1n2C)C(=O)C=CC3=O | > 100 | 2.45 | 
COc1ccc(C2=NOC(N)(c3ccc(OC)cc3)C2)cc1 (configuration not stated) | > 200 | > 200 | 
Cc1cc(OC(F)(F)c2nc3ccccc3o2)cc(C)c1C | 25.1 | 26.9 | 
COc1cc(C2(C)SCCCS2)c(I)c(OC)c1OC | > 234 | 6.17 | 
CCOC(=O)C[P+](c1cccc(OC)c1)(c1cccc(OC)c1)c1cccc(OC)c1 | > 200 | 46.8 | 
CC(=O)C1(C)CCC2C3C=C(C)C4=CC(=O)CCC4(C)C3CCC21C (configuration not stated) | > 117 | 16.2 | 

Compound | EC50 [µM] | IC50 [µM] | outcome
O=C(NCCc1ccccc1)c1c(O)c2ccccc2[nH]c1=O | > 200 | > 200 | 
O=C(O)c1cc(N=Nc2ccc(N=Nc3ccc(S(=O)(=O)O)cc3)cc2)ccc1O |  |  | inactive
CC(C)=C1C2C(C13C(=O)OC(C)(C)OC3=O)C2(C)C (configuration not stated) | > 490 | > 490 | 
Nc1nccc(Nc2ccc(S(N)(=O)=O)cc2)n1 | > 200 | 135 | 
COc1ccc(N2CCN(c3ccc4c(c3)NCC(=O)N4)CC2)cc1 | > 200 | 45.7 | 
COc1ccc2nc3cccc([N+](=O)[O-])c3c(NCCC(=O)O)c2c1 | > 200 | 4.57 | 
CC(=O)NNC(=S)/N=C/c1c(O)cc(C)oc1=O | > 200 | > 200 | 
CN1CCc2ccccc2C(C(=O)c2ccc(Cl)cc2)C1=O (configuration not stated) | > 83.2 | > 83.2 | 
CCCc1cc(=O)oc2c3c(cc(OC(C)C)c12)O[C@H](C)[C@@H](C)C3=O | 77.6 | 120 | 
C=C1C(=O)OC(CCCCCCCCCCCCC)C1C(=O)O (configuration not stated) | > 3.24 | > 3.24 | 
O=C1OC(Cc2ccccc2)(N2CCCC2=O)C1c1ccccc1 (configuration not stated) | > 112 | > 112 | 
N=C1OC(CN2CCN(c3ccccc3)CC2)CN1C(=O)Nc1ccccc1 (configuration not stated) | > 200 | > 200 | 
CC(C)CC(=O)NC(NC(C)C)(C(F)(F)F)C(F)(F)F | > 200 | > 200 | 
O=C(O)CC[N+]1=CCC(c2ccccc2)(c2ccccc2)O1 | > 832 | > 832 | 
COc1ccccc1C1C2=C(COC2=O)OC(C)(C)Oc2cc3c(cc21)OCO3 (configuration not stated) |  |  | inactive
CC1(C)CNC(=O)C(C)(C2(C)NC(C)(C)CNC2=O)N1 (configuration not stated) | > 200 | > 200 | 
[O-]/N=N\c1on[n+](CCc2ccccc2)c1Cc1c(/N=N/[O-])on[n+]1CCc1ccccc1 |  |  | inactive
O=c1cc2ccc(Cl)cc2n[nH]1 | > 85.1 | > 85.1 | 
COC(=O)[C@@H]1CN(C(=O)CCc2ccccc2)C(=O)N1C(=O)OCc1ccccc1 | > 200 | 97.7 | 
Cc1nn(C(=O)Cc2ccccc2)c2c1C(c1ccc(N(C)C)cc1)SC(N)=N2 (configuration not stated) | 55 | > 200 | 
